From the supplement of paper PMC9663587

Tests used:
Taselisib/GDC0032 = compound: Cc1nc(-c2cn3c(n2)-c2ccc(-c4cnn(C(C)(C)C(N)=O)c4)cc2OCC3)n(C(C)C)n1 [Taselisib/GDC0032]
BSJ-01-175 = compound: CN(C)C/C=C/C(=O)Nc1ccc(O[C@@H]2CCC[C@@H](Nc3ncc(Cl)c(-c4c[nH]c5ccccc45)n3)C2)cc1 [BSJ-01-175]
Paclitaxel = compound: CC(=O)O[C@H]1C(=O)[C@@]2(C)[C@H]([C@H](OC(=O)c3ccccc3)[C@]3(O)C[C@H](OC(=O)[C@H](O)[C@@H](NC(=O)c4ccccc4)c4ccccc4)C(C)=C1C3(C)C)[C@]1(OC(C)=O)CO[C@@H]1C[C@@H]2O [Paclitaxel]
Olaparib/AZD2281 = compound: O=C(c1cc(Cc2n[nH]c(=O)c3ccccc23)ccc1F)N1CCN(C(=O)C2CC2)CC1 [Olaparib/AZD2281]
ABT-737 = compound: CN(C)CC[C@H](CSc1ccccc1)Nc1ccc(S(=O)(=O)NC(=O)c2ccc(N3CCN(Cc4ccccc4-c4ccc(Cl)cc4)CC3)cc2)cc1[N+](=O)[O-] [ABT-737]
Ipatasertib/GDC0068 = compound: CC(C)NC[C@@H](C(=O)N1CCN(c2ncnc3c2[C@H](C)C[C@H]3O)CC1)c1ccc(Cl)cc1 [Ipatasertib/GDC0068]
Flavopiridol [1] = compound: T1, CN1CC[C@H](c2c(O)cc(O)c3c(=O)cc(-c4ccccc4Cl)oc23)[C@H](O)C1 [Flavopiridol]
Doxorubicin = compound: COc1cccc2c1C(=O)c1c(O)c3c(c(O)c1C2=O)C[C@@](O)(C(=O)CO)C[C@@H]3O[C@H]1C[C@H](N)[C@H](O)[C@H](C)O1 [Doxorubicin]
Luminespib/NVP-AUY922 = compound: CCNC(=O)c1noc(-c2cc(C(C)C)c(O)cc2O)c1-c1ccc(CN2CCOCC2)cc1 [Luminespib/NVP-AUY922]
LEE011/Ribociclib = compound: CN(C)C(=O)c1cc2cnc(Nc3ccc(N4CCNCC4)cn3)nc2n1C1CCCC1 [LEE011/Ribociclib]; assay: GR value, 72 h; higher = faster growth (1 = untreated, <0 = killing);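 also: breast cancer and non-malignant breast epithelial lines, nine half-log doses, viable cells counted by Hoechst and LIVE/DEAD dye imaging versus time-zero plates and DMSO controls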
[2] = compound: CCc1cnn2c(NCc3ccc[n+]([O-])c3)cc(N3CCCC[C@H]3CCO)nc12; assay: as above
[3] = compound: CC(=O)c1c(C)c2cnc(Nc3ccc(N4CCNCC4)cn3)nc2n(C2CCCC2)c1=O; assay: as above
THZ531 = compound: CN(C)C/C=C/C(=O)Nc1ccc(C(=O)N2CCC[C@@H](Nc3ncc(Cl)c(-c4c[nH]c5ccccc45)n3)C2)cc1 [THZ531]; assay: as above
Flavopiridol [4] = compound: T1, Flavopiridol; assay: as above
YKL-5-124 = compound: C=CC(=O)Nc1ccc(C(=O)Nc2[nH]nc3c2CN(C(=O)N[C@H](CN(C)C)c2ccccc2)C3(C)C)cc1 [YKL-5-124]; assay: as above
BSJ-03-123 = compound: CC(=O)c1c(C)c2cnc(Nc3ccc(N4CCN(CCOCCOCCOCCNC(=O)COc5cccc6c5C(=O)N(C5CCC(=O)NC5=O)C6=O)CC4)cn3)nc2n(C2CCCC2)c1=O [BSJ-03-123]; assay: as above
[5] = compound: CCN1CCN(Cc2ccc(Nc3ncc(F)c(-c4cc(F)c5nc(C)n(C(C)C)c5c4)n3)nc2)CC1; assay: as above
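For GR50, 72 h in this document: breast cancer and non-malignant breast epithelial cell lines, Deep Dye Drop or Dye Drop imaging, nine half-log doses, GR normalized to time-zero plates and DMSO-only controls.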

In the case of HS578T, the “GR50, 72 h” value (Taselisib/GDC0032) is reported as 0.575 µM, the “GR50, 72 h” value (BSJ-01-175) is reported as 0.0056 µM and the “GR50, 72 h” value (Paclitaxel) is reported as 0.00102 µM. For the same cell line, the “GR50, 72 h” value (Olaparib/AZD2281) was 8.91 µM, the “GR50, 72 h” value (ABT-737) was greater than 10 µM and the “GR50, 72 h” value (Ipatasertib/GDC0068) was 4.59 µM. The “GR50, 72 h” value (Flavopiridol [1]) was 0.148 µM, the “GR50, 72 h” value (Doxorubicin) was 0.00411 µM and the “GR50, 72 h” value (Luminespib/NVP-AUY922) was 0.0033 µM. For the same cell line, the GR value (LEE011/Ribociclib; 0.001 µM) was 0.825 GR, the GR value (LEE011/Ribociclib; 0.003162 µM) was 0.861 GR and the GR value (LEE011/Ribociclib; 0.01 µM) was 0.73 GR. It also gave a GR value (LEE011/Ribociclib; 0.03162 µM) of 0.672 GR, a GR value (LEE011/Ribociclib; 0.1 µM) of 0.63 GR and a GR value (LEE011/Ribociclib; 0.3162 µM) of 0.621 GR. For the same cell line, the GR value (LEE011/Ribociclib; 1 µM) was 0.591 GR, the GR value (LEE011/Ribociclib; 3.162 µM) was 0.513 GR and the GR value (LEE011/Ribociclib; 10 µM) was 0.373 GR. The GR value ([2]; 0.0001 µM) was 0.955 GR, the GR value ([2]; 0.0003162 µM) was 1.04 GR and the GR value ([2]; 0.001 µM) was 0.986 GR. It also gave a GR value ([2]; 0.003162 µM) of 1.02 GR, a GR value ([2]; 0.01 µM) of 0.313 GR and a GR value ([2]; 0.03162 µM) of -0.21 GR. It also gave a GR value ([2]; 0.1 µM) of -0.191 GR, a GR value ([2]; 0.3162 µM) of -0.216 GR and a GR value ([2]; 1 µM) of -0.237 GR. It also gave a GR value ([3]; 0.0003162 µM) of 1.07 GR, a GR value ([3]; 0.001 µM) of 0.988 GR and a GR value ([3]; 0.003162 µM) of 0.928 GR. The GR value ([3]; 0.01 µM) was 0.764 GR, the GR value ([3]; 0.03162 µM) was 0.666 GR and the GR value ([3]; 0.1 µM) was 0.569 GR. For the same cell line, the GR value ([3]; 0.3162 µM) was 0.481 GR, the GR value ([3]; 1 µM) was 0.423 GR and the GR value ([3]; 3.162 µM) was 0.302 GR. The GR value (THZ531; 0.0001 µM) was 1.04 GR, the GR value (THZ531; 0.0003162 µM) was 0.978 GR and the GR value (THZ531; 0.001 µM) was 1 GR. It also gave a GR value (THZ531; 0.003162 µM) of 1.03 GR, a GR value (THZ531; 0.01 µM) of 0.993 GR and a GR value (THZ531; 0.03162 µM) of 0.798 GR. For the same cell line, the GR value (THZ531; 0.1 µM) was 0.051 GR, the GR value (THZ531; 0.3162 µM) was -0.213 GR and the GR value (THZ531; 1 µM) was -0.252 GR. The GR value (Flavopiridol [4]; 0.0001 µM) was 1 GR, the GR value (Flavopiridol [4]; 0.0003162 µM) was 1.01 GR and the GR value (Flavopiridol [4]; 0.001 µM) was 0.977 GR. For the same cell line, the GR value (Flavopiridol [4]; 0.003162 µM) was 0.969 GR, the GR value (Flavopiridol [4]; 0.01 µM) was 0.95 GR and the GR value (Flavopiridol [4]; 0.03162 µM) was 0.923 GR. It also gave a GR value (Flavopiridol [4]; 0.1 µM) of 0.711 GR, a GR value (Flavopiridol [4]; 0.3162 µM) of 0.107 GR and a GR value (Flavopiridol [4]; 1 µM) of -0.265 GR. The GR value (YKL-5-124; 0.001 µM) was 0.455 GR, the GR value (YKL-5-124; 0.003162 µM) was 0.364 GR and the GR value (YKL-5-124; 0.01 µM) was 0.311 GR. It also gave a GR value (YKL-5-124; 0.03162 µM) of 0.239 GR, a GR value (YKL-5-124; 0.1 µM) of 0.242 GR and a GR value (YKL-5-124; 0.3162 µM) of 0.195 GR. It also gave a GR value (YKL-5-124; 1 µM) of 0.167 GR, a GR value (YKL-5-124; 3.162 µM) of 0.0237 GR and a GR value (YKL-5-124; 10 µM) of -0.462 GR. For the same cell line, the GR value (BSJ-03-123; 0.001 µM) was 0.971 GR, the GR value (BSJ-03-123; 0.003162 µM) was 0.905 GR and the GR value (BSJ-03-123; 0.01 µM) was 0.883 GR. For the same cell line, the GR value (BSJ-03-123; 0.03162 µM) was 0.844 GR, the GR value (BSJ-03-123; 0.1 µM) was 0.79 GR and the GR value (BSJ-03-123; 0.3162 µM) was 0.74 GR. The GR value (BSJ-03-123; 1 µM) was 0.626 GR, the GR value (BSJ-03-123; 3.162 µM) was 0.521 GR and the GR value (BSJ-03-123; 10 µM) was -0.29 GR. The GR value ([5]; 0.001 µM) was 0.969 GR, the GR value ([5]; 0.003162 µM) was 0.776 GR and the GR value ([5]; 0.01 µM) was 0.699 GR. For the same cell line, the GR value ([5]; 0.03162 µM) was 0.521 GR, the GR value ([5]; 0.1 µM) was 0.442 GR and the GR value ([5]; 0.3162 µM) was 0.268 GR. The GR value ([5]; 1 µM) was 0.217 GR, the GR value ([5]; 3.162 µM) was -0.238 GR and the GR value ([5]; 10 µM) was -0.576 GR.
